# Measurements as given in US12194039B2, “Methods of treating heart failure by administering omecamtiv mecarbil” (Cytokinetics, Inc., priority 2020, dated 2025).
# Experiments:
# CYP2C8 = biological target: T1, CYP2C8 (Homo sapiens, UniProt P10632); experiment: In vitro inhibition by OM; type: in vitro ADME; conditions: result in words
# T1 sequence (P10632 1-490): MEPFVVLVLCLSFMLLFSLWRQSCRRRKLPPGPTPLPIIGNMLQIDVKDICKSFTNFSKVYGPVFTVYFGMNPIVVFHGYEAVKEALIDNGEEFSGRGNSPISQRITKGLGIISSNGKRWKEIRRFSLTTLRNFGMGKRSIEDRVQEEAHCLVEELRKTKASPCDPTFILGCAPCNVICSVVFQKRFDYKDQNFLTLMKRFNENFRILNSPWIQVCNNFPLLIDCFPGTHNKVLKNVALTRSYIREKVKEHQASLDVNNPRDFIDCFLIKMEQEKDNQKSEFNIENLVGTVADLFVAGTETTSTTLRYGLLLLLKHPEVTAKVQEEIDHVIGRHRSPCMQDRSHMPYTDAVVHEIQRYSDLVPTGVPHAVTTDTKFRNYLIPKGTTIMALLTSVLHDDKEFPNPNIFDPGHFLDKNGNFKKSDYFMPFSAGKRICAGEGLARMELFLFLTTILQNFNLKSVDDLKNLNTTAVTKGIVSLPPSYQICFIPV
# [1] = tested on: patients with heart failure and reduced ejection fraction; type: in vivo
# Description: The study was event-driven and was ended after approximately 1590 cardiovascular deaths. The overall type I error was 0.05 for 2-sided testing across primary and secondary endpoints with control for multiplicity testing. A single interim efficacy analysis was conducted after approximately two-thirds of the targeted number of cardiovascular deaths accrued with a one-sided alpha of 0.0005. Given the negligible impact of this interim on the final alpha, the full 0.05 was used in the final analysis consistent with the Haybittle-Peto approach. […] The mean differences in the KCCQ TSS change from baseline to Week 24 were estimated using a mixed model stratified by randomization setting (inpatient and outpatient) containing baseline TSS value, region, baseline eGFR, scheduled visit, treatment group, and the interaction of treatment group with scheduled visit. A joint omnibus F-test was used to test the treatment effect for the KCCQ TSS. An overall pooled estimate for the KCCQ TSS treatment difference to placebo were conducted using a likelihood based approach. The prespecified safety analyses included: serious adverse events; adverse events associated with discontinuation of study treatment; “adverse events of interest” i.e., ventricular arrhythmias requiring treatment and positively adjudicated major cardiac ischemic events (including myocardial infarction, hospitalization for unstable angina, coronary revascularization). […] All analyses were performed with the use of SAS software, version 9.4 (SAS Institute).
# Excluding the discontinuations due to death, the study drug was stopped in 847 patients (20.6%) receiving omecamtiv mecarbil and 897 patients (21.9%) receiving placebo with 371 (9.0%) in the omecamtiv mecarbil group and 382 (9.3%) receiving placebo discontinuing due to an adverse event. Patients receiving omecamtiv mecarbil had no change in potassium or creatinine concentrations during the course of the trial compared to placebo. Patients receiving omecamtiv mecarbil had increased median concentrations of high sensitivity troponin-I from baseline of 0.004 ng/mL (lower limit of quantification, 0.010 ng/mL) compared to placebo at week 24. […] Ventricular arrhythmias were similar in patients receiving omecamtiv mecarbil compared to placebo (Table 3).
# Continuous variables were summarized as means±standard deviations (SD) or medians and first and third quartiles (Q1, Q3), as appropriate. Categorical variables were summarized as counts and percentages. […] The change from baseline on NT-proBNP analysis included all participants who underwent randomization. The difference column is the exponentiated change from baseline on the log scale using a mixed model containing the log baseline value, region, baseline eGFR, scheduled visit, treatment group and interaction of treatment with scheduled visit.
# Table 4 summarizes the adverse events reported in 1% or more of patients.
# MATE1 = biological target: T2, MATE1 (Homo sapiens, UniProt Q96FL8); experiment: In vitro inhibition by OM; type: in vitro ADME; conditions: result in words
# T2 sequence (Q96FL8 1-570): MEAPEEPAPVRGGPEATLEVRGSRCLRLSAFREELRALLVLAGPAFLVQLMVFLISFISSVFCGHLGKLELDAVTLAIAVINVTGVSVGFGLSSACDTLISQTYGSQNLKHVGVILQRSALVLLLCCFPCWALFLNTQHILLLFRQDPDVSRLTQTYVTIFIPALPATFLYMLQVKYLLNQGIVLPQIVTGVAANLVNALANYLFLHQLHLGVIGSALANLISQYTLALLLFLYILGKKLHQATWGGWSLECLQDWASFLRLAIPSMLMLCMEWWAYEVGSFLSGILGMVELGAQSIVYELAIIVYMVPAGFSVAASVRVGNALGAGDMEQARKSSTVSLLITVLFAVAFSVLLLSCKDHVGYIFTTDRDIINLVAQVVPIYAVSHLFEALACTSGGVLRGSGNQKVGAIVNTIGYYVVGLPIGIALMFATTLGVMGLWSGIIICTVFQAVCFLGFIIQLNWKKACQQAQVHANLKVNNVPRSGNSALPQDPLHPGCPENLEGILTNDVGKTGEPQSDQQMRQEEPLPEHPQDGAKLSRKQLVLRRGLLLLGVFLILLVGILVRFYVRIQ
# [2] = treatment-emergent serious adverse event, preferred term, N = 4110
compound,measurement,setting,value
COC(=O)N1CCN(Cc2cccc(NC(=O)Nc3ccc(C)nc3)c2F)CC1 [omecamtiv mecarbil],Inhibition of CYP2C8,CYP2C8,inhibitor
same,"Acute kidney injury, %","[1]; human, in vivo",(3.1) %
same,"Acute myocardial infarction, %","[1]; human, in vivo",(1.7) %
same,"Adjudicated major cardiac ischemic events, no.","[1]; human, in vivo",200 no.
same,"Adjudicated major cardiac ischemic events, relative risk","[1]; human, in vivo",1.06
same,"Angina pectoris, %","[1]; human, in vivo",(1.0) %
same,"Angina unstable, %","[1]; human, in vivo",(1.5) %
same,"Atrial fibrillation, %","[1]; human, in vivo",(2.3) %
same,"Cardiac arrest, %","[1]; human, in vivo",(1.2) %
same,"Cardiac failure acute, %","[1]; human, in vivo",(5.2) %
same,"Cardiac failure chronic, %","[1]; human, in vivo",(3.8) %
same,"Cardiac failure congestive, %","[1]; human, in vivo",(3.6) %
same,"Cardiac failure, %","[1]; human, in vivo",(24.0) %
same,"Cardiogenic shock, %","[1]; human, in vivo",(1.8) %
same,"Chronic kidney disease, %","[1]; human, in vivo",(0.9) %
same,"Chronic obstructive pulmonary disease, %","[1]; human, in vivo",(1.5) %
same,"Coronary revascularization (adjudicated), %","[1]; human, in vivo",(2.8) %
same,"Coronary revascularization (adjudicated), no.","[1]; human, in vivo",115 no.
same,"Drug discontinuation due to an adverse event, no.","[1]; human, in vivo",371 no.
same,"Drug discontinuation due to an adverse event, relative risk","[1]; human, in vivo",0.97
same,"Hospitalized for unstable angina (adjudicated), %","[1]; human, in vivo",(0.6) %
same,"Hospitalized for unstable angina (adjudicated), no.","[1]; human, in vivo",25 no.
same,"Hypotension, %","[1]; human, in vivo",(1.2) %
same,"Myocardial infarction (adjudicated major cardiac ischemic event), no.","[1]; human, in vivo",122 no.
same,"Myocardial infarction, %","[1]; human, in vivo",(0.9) %
same,"Pneumonia, %","[1]; human, in vivo",(4.2) %
same,"Renal failure, %","[1]; human, in vivo",(0.6) %
same,"Renal impairment, %","[1]; human, in vivo",(0.6) %
same,"Respiratory tract infection, %","[1]; human, in vivo",(0.4) %
same,"Sepsis, %","[1]; human, in vivo",(1.2) %
same,"Septic shock, %","[1]; human, in vivo",(0.9) %
same,"Serious adverse events (subjects reporting treatment-emergent serious adverse events), %","[1]; human, in vivo",(57.7) %
same,"Serious adverse events (subjects reporting treatment-emergent serious adverse events), no.","[1]; human, in vivo",2373 no.
same,"Serious adverse events, relative risk","[1]; human, in vivo",0.97
same,"Serious adverse ventricular arrhythmia requiring treatment, %","[1]; human, in vivo",(2.9) %
same,"Serious adverse ventricular arrhythmia requiring treatment, no.","[1]; human, in vivo",119 no.
same,"Serious adverse ventricular arrhythmia requiring treatment, relative risk","[1]; human, in vivo",0.93
same,"Stroke, %","[1]; human, in vivo",(1.8) %
same,"Stroke, no.","[1]; human, in vivo",76 no.
same,"Stroke, relative risk","[1]; human, in vivo",0.68
same,"Study drug stopped, % of patients","[1]; human, in vivo",20.6%
same,"Study drug stopped, no. of patients","[1]; human, in vivo",847 no.
same,"Syncope, %","[1]; human, in vivo",(1.0) %
same,"Torsade de pointes/QT prolongation (narrow SMQ), %","[1]; human, in vivo",(4.3) %
same,"Torsade de pointes/QT prolongation (narrow SMQ), no.","[1]; human, in vivo",176 no.
same,"Torsade de pointes/QT prolongation (narrow SMQ), relative risk","[1]; human, in vivo",0.90
same,"Ventricular fibrillation, %","[1]; human, in vivo",(0.7) %
same,"Ventricular tachyarrhythmias (narrow SMQ), %","[1]; human, in vivo",(7.1) %
same,"Ventricular tachyarrhythmias (narrow SMQ), no.","[1]; human, in vivo",290 no.
same,"Ventricular tachyarrhythmias (narrow SMQ), relative risk","[1]; human, in vivo",0.95
same,"Ventricular tachycardia, %","[1]; human, in vivo",(2.6) %
same,"lschaemic stroke, %","[1]; human, in vivo",(0.9) %
same,"Death, %",[1]; [2],(1.6) %
same,"Sudden cardiac death, %",[1]; [2],(0.7) %
same,"Sudden death, %",[1]; [2],(1.3) %
same,Inhibition of MATE1,MATE1,inhibitor
